Test results as given in patent US11834432B2, “Substituted amino six-membered nitric heterocyclic ring compound and preparation and use thereof” (SHANGHAI INSTITUTE OF MATERIA MEDICA, CHINESE ACADEMY OF …, priority 2016, dated 2023).

Legend:
[1] = test system: human gastric cancer SNU-16 subcutaneously transplanted tumor; assay: Growth of subcutaneously transplanted tumor in human gastric cancer SNU-16 nude mice; type: in vivo
Description: The human gastric cancer SNU-16 cell strain was preserved in our laboratory.
S10 groups (30 mg/kg and 10 mg/kg) were orally administered once a day for 21 days; AZD4547 group (10 mg/kg) was administered orally once a day for 21 days; solvent control group was given the same amount of water for injection.

[2] = test system: human lung cancer NCI-H1581 subcutaneously transplanted tumor; assay: Growth of subcutaneously transplanted tumor in human lung cancer NCI-H1581 nude mice
Description: The cell strain was inoculated in the right axilla of the nude mice, and the amount of cells inoculated was 5×10^6/mouse to form transplanted tumor, which was directly inoculated and used.
The tumor tissue in the prosperous growth period was cut into 1.5 mm^3, and inoculated subcutaneously in the right axilla of the nude mice under aseptic conditions. The diameter of the transplanted tumor in the nude mice was measured with a vernier caliper, and the animals were randomly grouped when the average volume of tumors was about 150-160 mm^3. […] The solvent control group was given an equal amount of water for injection. The diameter of the transplanted tumor was measured twice a week during the entire experiment, and the body weight of the mice was also weighed. The calculation formula of tumor volume (TV) is: TV=1/2×a×b^2, where a and b respectively represent the length and width of the tumor. The relative tumor volume (RTV) was calculated based on the measured results and the formula was: RTV=Vt/V0, where V0 is the tumor volume measured at grouping and dosing (d0), and Vt is the tumor volume at each measurement.

[3] = test system: human gastric cancer SNU-16 subcutaneously transplanted tumor; assay: Growth of subcutaneously transplanted tumor in human gastric cancer SNU-16 nude mice; type: in vivo; remark: listed apart in the source
[4] = molecular target: FGFR1 kinase domain recombinant protein (Homo sapiens (Human), UniProt P11362); assay: Inhibition of receptor tyrosine kinase FGFR1 activity (ELISA); type: biochemical; conditions: for inhibition at 0.1 µM: 1 h, read-out: Inhibition ratio (%) @ 0.1 μM
FGFR1 kinase domain recombinant protein, sequence (P11362 478-767): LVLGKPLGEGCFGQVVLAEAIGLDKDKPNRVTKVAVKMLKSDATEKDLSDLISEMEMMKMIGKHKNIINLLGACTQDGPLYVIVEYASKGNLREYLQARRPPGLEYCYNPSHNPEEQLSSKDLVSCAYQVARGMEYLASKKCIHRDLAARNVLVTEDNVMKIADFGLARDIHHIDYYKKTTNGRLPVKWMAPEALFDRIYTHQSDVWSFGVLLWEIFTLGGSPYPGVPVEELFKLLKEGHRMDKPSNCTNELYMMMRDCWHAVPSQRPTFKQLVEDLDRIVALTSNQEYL
Description: 1. Preliminary Evaluation Inhibition on Receptor Tyrosine Kinase FGFR1 Activity of Compound
1. […] The liquid from the well was discarded. The plate was washed for three times with T-PBS (0.1% Tween-20 in potassium-free PBS, 200 μL/well), 5 minutes for each time. The elisa plate was dried in 37° C. dryer for 1-2 hours.
2. 49 μL of ATP solution diluted in reaction buffer (50 mM HEPES pH 7.4, 50 mM MgCl2, 0.5 mM MnCl2, 0.2 mM Na3VO4, 1 mM DTT) was added into each well, and 1 μL of the test compound was added to each well, and then 50 μL of FGFR1 kinase domain recombinant protein diluted in reaction buffer was added to initiate the reaction, and two control wells without ATP were required for each experiment. The reaction was performed on a Shaker (100 rpm) at 37° C. for 1 hour. The liquid from the well was discarded, and the plate was washed with T-PBS for three times.
3. The antibody PY99 dilution (antibody diluted 1:500 in T-PBS with BSA 5 mg/mL) was added at 100 μL/well, and shaken for 0.5 hours on a 37° C. shaker. The liquid from the well was discarded, and the plate was washed with T-PBS for three times.
4. The horseradish peroxidase-labeled goat anti-mouse second antibody dilution (antibody diluted 1:2000 in T-PBS with BSA 5 mg/mL) was added at 100 μL/well, and shaken for 0.5 hours on a 37° C. shaker. The liquid from the well was discarded, and the plate was washed with T-PBS for three times.
5. 2 mg/mL OPD coloration solution (diluted with 0.1 M citric acid-sodium citrate buffer containing 0.03% H2O2 (pH=5.4)) was added at 100 μL/well, and reacted for 1-10 minutes at 25° C. in darkness.
6. The reaction was quenched with 50 μL/well of 2M H2SO4, and the plate was read using a tunable microplate microplate reader VERSAmax at 490 nm.
(§1) The IC50 values were obtained by four-parameter regression analysis using the software supplied with the microplate reader.

[5] = test system: SNU16 cells; assay: Inhibition of proliferation of SNU16 cells (CCK-8); type: cell-based; conditions: Homo sapiens, SNU-16, 72 h; for inhibition at 0.01 µM: 10 nM; for inhibition at 0.01 µM / inhibition at 0.1 µM / inhibition at 1 µM: 72 h, read-out: Inhibition ratio (%); for inhibition at 0.1 µM: 100 nM; for inhibition at 1 µM: 1000 nM
Description: The inhibitory effect on proliferation of SNU16 cells of a compound was examined by CCK-8 Cell Counting Kit (Dojindo). The steps are as follows: SNUI 6 cells at Logarithmic growth phase were seeded in a 96-well culture plate at appropriate density, 90 ul for each well. After cultured overnight, different concentrations of drugs were added and treated for 72 h, while solvent control well was set (negative control). After 72 h, the influence of the compound on the proliferation of cells was observed by CCK-8 cell counting kit (Dojindo). 10 μL of CCK-8 reagent was added to each well. After incubated for 2-4 hours in a 37° C. incubator, the plate was read with SpectraMax 190 microplate reader at wavelength 450 nm.
as §1

| IC50 [4] [nM] | inhibition at 0.1 µM [4] [%] | Structure (SMILES) | inhibition at 0.01 µM [5] [%] | inhibition at 0.1 µM [5] [%] | inhibition at 1 µM [5] [%] | also measured |
| --- | --- | --- | --- | --- | --- | --- |
| < 100 | 72 | CNC(=O)c1cccc2cc(Oc3ccnc(NC(=O)c4ccc(OCCN5CC(F)C5)cc4)c3)ccc12 [Compound S1] | – | – | – | – |
| < 10 | 74 | CNC(=O)c1cccc2cc(Oc3ccnc(NC(=O)c4ccc(OCCN5CCCC5)cc4)c3)ccc12 [Compound S4] | 55.3 | 61 | 59 | IC50 [5]: 29.2 nM |
| – | 87 | CNC(=O)c1cccc2cc(Oc3ccnc(NC(=O)c4ccc(N5CCN(C)CC5)cc4)c3)ccc12 [Compound S5] | 60.4 | 60.1 | 57.8 | IC50 [5]: 13.8 nM |
| < 10 | 95 | CNC(=O)c1cccc2cc(Oc3ccnc(NC(=O)c4ccc(N5CCNC(C)C5)cc4)c3)ccc12 (centres unmarked) [Compound S9] | 70.9 | 73.2 | 73.3 | IC50 [5]: 13.8 nM |
| < 10 | 89 | CNC(=O)c1cccc2cc(Oc3ccnc(NC(=O)c4ccc(N5CCN(CCO)CC5)cc4)c3)ccc12 [Compound S11] | – | – | – | – |
| < 1000 | 44 | CNC(=O)c1cccc2cc(Oc3ccnc(NC(=O)c4ccc(CN5CCN(C)CC5)c(C(F)(F)F)c4)c3)ccc12 [Compound S12] | – | – | – | – |
| > 1000 | 23 | CNC(=O)c1cccc2cc(Oc3ccnc(NC(=O)c4ccc(N5C[C@@H](C)N[C@@H](C)C5)cc4F)c3)ccc12 [Compound S13] | – | – | – | – |
| < 100 | 71 | CNC(=O)c1cccc2cc(Oc3ccnc(NC(=O)c4ccc(N5C[C@@H](C)N[C@@H](C)C5)cc4C)c3)ccc12 [Compound S15] | – | – | – | – |
| < 100 | 58 | CNC(=O)c1cccc2cc(Oc3ccnc(NC(=O)c4cnc(N5C[C@@H](C)N[C@@H](C)C5)nc4)c3)ccc12 [Compound S16] | 26.4 | 55.3 | 61.6 | – |
| < 100 | 59 | CNC(=O)c1cccc2cc(Oc3ccnc(NC(=O)c4csc(N5CCN(C)CC5)n4)c3)ccc12 [Compound S17] | – | – | – | – |
| < 100 | 65 | CNC(=O)c1cccc2cc(Oc3ccnc(NC(=O)c4coc(N5CCN(C)CC5)n4)c3)ccc12 [Compound S18] | – | – | – | – |

More lines, now with the values behind:

| Structure (SMILES) | IC50 [4] [nM] | inhibition at 0.1 µM [4] [%] | inhibition at 0.01 µM [5] [%] | inhibition at 0.1 µM [5] [%] | inhibition at 1 µM [5] [%] | also measured |
| --- | --- | --- | --- | --- | --- | --- |
| COc1cc(CCc2cc(NC(=O)c3ccc(N4CC(C)NC(C)C4)cc3)n[nH]2)cc(OC)c1 (centres unmarked) [AZD4547, reference compound] | – | – | – | – | – | Body weight (g) d0 ([1]; 10 mg/kg po qd/21, d0): 20.1 g; TV (mm^3, mean ± SD) d0 ([1]; 10 mg/kg po qd/21, d0): 103 ± 18 mm^3; Body weight (g) d21 ([1]; 10 mg/kg po qd/21, d21): 22.4 g; RTV (mean ± SD) ([1]; 10 mg/kg po qd/21, d21): 8.21 ± 3.91; T/C (%) ([1]; 10 mg/kg po qd/21, d21): 59.80%; TV (mm^3, mean ± SD) d21 ([1]; 10 mg/kg po qd/21, d21): 790 ± 247 mm^3 |
| CNC(=O)n1ccc2cc(Oc3ccnc(NC(=O)c4ccc(C5CCN(CCO)CC5)cc4)c3)c(OCCOC)cc21 [Compound E7090, reference compound] | – | – | – | – | – | Relative tumor proliferation rate T/C (%) ([2]; 6.25 mg/Kg): 46%; Relative tumor proliferation rate T/C (%) ([2]; 12.5 mg/Kg): 21%; Relative tumor proliferation rate T/C (%) ([2]; 25 mg/Kg): 13%; Relative tumor proliferation rate T/C (%) ([2]; 50 mg/Kg): 8%; Relative tumor proliferation rate T/C (%) ([1]; 12.5 mg/Kg): 26%; Relative tumor proliferation rate T/C (%) ([3]; 6.25 mg/Kg): 49%; Relative tumor proliferation rate T/C (%) ([3]; 25 mg/Kg): 17%; Relative tumor proliferation rate T/C (%) ([3]; 50 mg/Kg): 18% |
| CNC(=O)c1cccc2cc(Oc3ccnc(NC(=O)c4ccc(OCCN5CC(F)(F)C5)cc4)c3)ccc12 [Compound S2] | < 100 | 80 | – | – | – | – |
| CNC(=O)c1cccc2cc(Oc3ccnc(NC(=O)c4ccc(OCC5(N)CC5)cc4)c3)ccc12 [Compound S3] | < 10 | 90 | – | – | – | – |
| CNC(=O)c1cccc2cc(Oc3ccnc(NC(=O)c4ccc(C5CCNCC5)cc4)c3)ccc12 [Compound S6] | < 10 | 84 | 45.1 | 63.5 | 59.6 | IC50 [5]: 15.9 nM |
| CNC(=O)c1cccc2cc(Oc3ccnc(NC(=O)c4ccc(N5CCOCC5)cc4)c3)ccc12 [Compound S7] | < 10 | 91 | 30.1 | 53.3 | 60.5 | – |
| CNC(=O)c1cccc2cc(Oc3ccnc(NC(=O)c4ccc(N5CC(C)OC(C)C5)cc4)c3)ccc12 (centres unmarked) [Compound S8] | < 10 | 93 | 23.2 | 36.3 | 48.1 | – |
| CNC(=O)c1cccc2cc(Oc3ccnc(NC(=O)c4ccc(N5C[C@@H](C)N[C@@H](C)C5)cc4OC)c3)ccc12 [Compound S14] | < 1000 | 40 | – | – | – | – |
| CNC(=O)c1cccc2cc(Oc3ccnc(NC(=O)c4cnn(CCO)c4)c3)ccc12 [Compound S19] | < 10 | 86 | – | – | – | – |
| CNC(=O)c1cccc2cc(Oc3ccnc(NC(=O)c4ccc(N5C[C@@H](C)N[C@@H](C)C5)cc4)n3)ccc12 [Compound S20] | < 10 | 94 | – | – | – | – |
| CNC(=O)c1cccc2cc(Oc3ccnc(NC(=O)c4ccc(NCC5(O)CCOCC5)cc4)c3)ccc12 [Compound S23] | < 10 | 86 | – | – | – | – |
| COC(=O)c1cccc2cc(Oc3ccnc(NC(=O)c4ccc(N5C[C@@H](C)N[C@@H](C)C5)cc4)c3)ccc12 [Compound S24] | < 10 | 87 | – | – | – | – |
